In brackets after ≈: the same amount, converted by molar mass. Read-outs that look alike come from different tables or passages of the source. Where a SMILES comes first, the peptide text is derived from it. [ ]: non-standard residue; d: D form. The star is where a group is joined. Levofloxacinoyl = C[C@H]1COc2c(N3CCN(C)CC3)c(F)cc3c(=O)c(C(=O)*)cn1c23
What was measured:
[1] = system: E. coli (ATCC 25922); experiment: Antibacterial broth microdilution MIC assay; type: cell-based, Escherichia coli; conditions: >99% inhibition of growth, MH broth, 20-22 h, 37 °C
Description: (§1) The antibacterial activity of peptide analogs was tested against different bacterial strains, i.e., Salmonella enterica subsp. enterica serotype Typhimurium or Salmonella typhi (ATCC 14028), Staphylococcus aureus (NCTC 13277), Bacillus subtilis (ATCC 23857), Escherichia coli (ATCC 25922), and Pseudomonas aeruginosa (ATCC 10145). These strains were obtained from the microbial bank of Dr. Panjwani Center for Molecular Medicine and Drug research (PCMD), International Center for Chemical and Biological Sciences (ICCBS), University of Karachi. Colonies of these bacterial strains were grown in respective agar media, then inoculated in Mueller Hinton (MH) broth (Oxoid, UK) and incubated at 37 °C overnight. The peptide solutions were first diluted 1 in 100 (from the stock solution at 20 mM) and then further two-fold dilution in MH broth in a sterile 96-well plate was performed, resulting in 100 µL of broth containing increasing concentrations of analogs. Bacteria in their exponential growth phase were diluted in MH broth, and 100 µL of this suspension was added in each well. […] Then, these plates were incubated at 37 °C for 20–22 h. MIC (Minimum Inhibitory Concentration) values were determined as the concentrations of peptides causing >99% inhibition of bacterial growth.

[2] = system: S. typhi (ATCC 14028)
[3] = system: B. subtilis (ATCC 23857); experiment: Antibacterial broth microdilution MIC assay; type: cell-based, Bacillus subtilis; conditions: >99% inhibition of growth, MH broth, 20-22 h, 37 °C
Description: as §1

[4] = system: P. aeruginosa (ATCC 10145); experiment: Antibacterial broth microdilution MIC assay; type: cell-based, Pseudomonas aeruginosa; conditions: >99% inhibition of growth, MH broth, 20-22 h, 37 °C
Description: as §1

[5] = system: C. albicans (ATCC 36082); experiment: microbe, parasite or virus in culture
Description: Candida albicans (ATCC 36082) was cultured on Sabourad Dextrose Agar (SDA). A single colony was inoculated in Sabouraud Dextrose Broth (SDB) medium and grown overnight at 37 °C while shaking. The next day, the susceptibility of C. albicans was tested using a broth microdilution assay. Peptide analogs were diluted in SDB media by two-fold dilution, resulting in 100 µL of medium containing increasing concentrations of analogs. The overnight culture (turbidity at OD600 = 1) was 1000× diluted in SDB. Then 100 µL of this suspension was added to each well, resulting in a final 200 µL suspension containing 2–4 × 10^5 CFU/mL. The plate was incubated at 37 °C for 24 h. The next day, MIC (Minimum Inhibitory Concentration) values were determined as the concentrations of peptides causing > 99% inhibition of yeast growth.

[6] = system: P. aeruginosa; experiment: Atomic force microscopy imaging of treated bacteria; type: cell-based, Pseudomonas aeruginosa; conditions: 2XMIC, overnight, tapping mode
Description: (§2) Different bacteria (S. typhi, E. coli, and P. aeruginosa) adjusted to 2–3 × 10^7 CFU/mL were treated with 2XMIC values of analogs and incubated overnight at 37 °C. The next day, the bacteria were washed, dispersed in sterile pure grade water, dispensed in poly-L-lysine-coated mica slides, and left for air drying. Changes in the morphology of the bacteria were studied with an atomic force microscope (Agilent 5500, Chandler, AZ, USA). The whole analysis was carried out in tapping mode. Images were collected and optimized at a scan velocity of 1–5 µm/s and 512 × 512-line resolution and processed through PicoView 1.2 imaging software.

[7] = system: S. aureus (NCTC 13277); conditions: >99% inhibition of growth, MH broth, 20-22 h, 37 °C
[8] = system: human red blood cells (RBC); experiment: Hemolytic assay; type: cell-based
Description: For the hemolytic assay, fresh human blood (2 mL) was obtained from a healthy donor in EDTA tube while following the protocol of approval from the Independent Ethics Committee of ICCBS (approval number ICCBS/IEC-047-HB-2019/Protocol/1.0). The blood was centrifuged and upper supernatant plasma was removed. The cell pellets were washed with sterile PBS three times. The washed blood cells were then diluted 25 times to make 4% concentration of the initial blood cells. Red blood cells (500 µL) were treated with increasing concentrations of analogs, with triton X-100 at 0.1% being used as positive control giving 100% hemolysis. After 1 h of incubation at 37 °C, tubes were centrifuged at 800 rpm for 5 min to pellet down red blood cells. After centrifugation, 200 µL of supernatant were transferred into a 96 well plate and the absorbance was recorded at 576 nm using a microplate reader (MultiSkan Go, ThermoScientific). Then, the following formula was applied to calculate percent hemolysis: % Hemolysis=O.D of test sample−O.D of PBS control/O.D of Tritox×positive control−O.D of PBS control×100

[9] = Circular dichroism secondary structure analysis (Bestsel) in 20 mM SDS; type: physicochemical; conditions: CD, 15 µM peptide in 20 mM SDS, 22 °C
Description: The far-ultraviolet circular dichroism (CD) spectra were recorded using a JASCO J-810 spectropolarimeter (Jasco, Tokyo, Japan), with measurements taken in a quartz cuvette with a 10 mm path length. The temperature was kept at 22 °C, and the instrument was calibrated with D-(+)-10-camphorsulfonic acid. Peptides were dissolved in 20 mM SDS to a final concentration of 15 µM. The CD spectra were collected over a wavelength range of 190 to 260 nm with a bandwidth of 2 nm. Each spectrum was recorded with ten consecutive scans at a rate of 50 nm/min, and the baseline was obtained under identical conditions. Secondary structures, i.e., the percentage of alpha-helix and other secondary structures, were quantified from CD data using Bestsel software (https://bestsel.elte.hu/index.php, accessed on 22 October 2024).

[10] = system: E. coli; experiment: Atomic force microscopy imaging of treated bacteria; type: cell-based, Escherichia coli; conditions: 2XMIC, overnight, tapping mode
Description: as §2

[11] = system: Human breast cancer (MCF-7) cells; experiment: cells; type: cell-based
Description: (§3) Human breast cancer (MCF-7) and human cervical cancer (HeLa) cells were obtained from the cell culture bank of PCMD in ICCBS, University of Karachi. These cells were maintained in Dulbecco’s Modified Eagle Medium (DMEM), supplemented with 10% fetal bovine serum, and incubated at 37 °C and 5% CO2. The antiproliferative activity of the samples was determined by a MTT assay. Briefly, the cells were washed with PBS and trypsinized. After determination of the cell number using Malassez cell counting, 100 µL of the cell suspension were seeded in a 96-well plate at the density of 6000 cells/well and incubated at 37 °C and 5% CO2. After 24 h, the cells were treated with increasing concentrations of analogs. The next day, media was removed and 200 µL of MTT dye (0.5 mg/mL) was added in each well and incubated for 3 h at 37 °C in 5% CO2 incubator. Then, the media was removed and 100 µL of DMSO was added to solubilize formazan crystals. After one minute of shaking, the absorbance was recorded at 540 nm in microplate reader (Multiskan GO, ThermoScientific, Waltham, MA, USA). Finally, the percent inhibition of proliferation was calculated using the following formula: % inhibition of proliferation=O.D of treated well−O.D of media control/O.D of untreated control−O.D of media control×100

[12] = system: human cervical cancer (HeLa) cells; experiment: cells; type: cell-based
Description: as §3

[13] = system: cancer cells (MCF-7, HeLa); set-up: species or system human
Description: The selectivity of action of the analogs against micro-organisms or cancer cells was further evaluated through calculation of their selectivity indexes (SIs). SIs were determined using either the MIC on micro-organisms or IC50 on cancer cells compared to HC50 values, and they are reported in Table 6.

[14] = system: human red blood cells (RBC); conditions: previously reported; cited from earlier work
[15] = MTT, 24 h exposure, read-out: IC50 on Cervical Cancer (HeLa)

| Structure (SMILES) | MIC [1] | MIC [3] | MIC [4] | MIC C. albicans (ATCC 36082) ([5]; ATCC 36082, 24 h) | MIC S. aureus (NCTC 13277) [7] | HC50 on Human Red Blood Cells (RBCs) ([8]; red cells of human, 1 h) | IC50 ([11]; 24 h) | IC50 [12, 15] | MIC S. typhi (ATCC 14028) ([2]; ATCC 14028) | IC50 [13] | IC50 ([12]; 24 h) | other results |
| --- | --- | --- | --- | --- | --- | --- | --- | --- | --- | --- | --- | --- |
| CC[C@H](C)[C@H](NC(=O)[C@@H](NC(=O)CNC(=O)[C@H](CCSC)NC(=O)[C@H](CC(C)C)NC(=O)CNC(=O)[C@H](CCCCN)NC(=O)[C@H](CC(C)C)NC(=O)[C@@H](N)Cc1ccccc1)C(C)C)C(=O)N[C@H](C)C(=O)N[C@@H](CO)C(=O)N[C@@H](CC(C)C)C(=O)N[C@@H](Cc1ccccc1)C(=O)N[C@@H](CCCCN)C(N)=O [RSP-1 (3), H-Phe^1-Leu^2-Lys^3-Gly^4-Leu^5-Met^6-Gly^7-Val^8-Ile^9-D-Ala^10-Ser^11-Leu^12-Phe^13-Lys^14-NH2] (H-FLKGLMGVI[dA]SLFK-NH2) | 25 µM (≈ 38.1 µg/mL) | 1.56 µM (≈ 2.38 µg/mL) | 50 µM (≈ 76.1 µg/mL) | 15.6 µM (≈ 23.8 µg/mL) | 6.25 µM (≈ 9.52 µg/mL) | 51.0 µM | 42.7 µM | 33.5 µM | – | – | – | MIC S. typhi (ATCC 14028) ([2]; >99% inhibition of growth, MH broth, 20-22 h, 37 °C): 50 µM (≈ 76.1 µg/mL); AFM morphology of P. aeruginosa after treatment [6]: significant damages to the bacteria; Antiparallel (%) [9]: 18.2%; Helix (%) [9]: 81.8%; Others (%) [9]: 0.00%; Parallel (%) [9]: 0.00%; Turn (%) [9]: 0.00%; AFM morphology of E. coli after treatment [10]: significant damages to the bacteria |
| CC[C@H](C)[C@H](NC(=O)[C@@H](NC(=O)CNC(=O)[C@H](CCSC)NC(=O)[C@H](CC(C)C)NC(=O)CNC(=O)[C@H](CCCCNC(=O)c1cn2c3c(c(N4CCN(C)CC4)c(F)cc3c1=O)OC[C@@H]2C)NC(=O)[C@H](CC(C)C)NC(=O)[C@@H](N)Cc1ccccc1)C(C)C)C(=O)N[C@H](C)C(=O)N[C@@H](CO)C(=O)N[C@@H](CC(C)C)C(=O)N[C@@H](Cc1ccccc1)C(=O)N[C@@H](CCCCN)C(N)=O [RLFP-2 (5), H-Phe^1-Leu^2-Lys^3(LF)-Gly^4-Leu^5-Met^6-Gly^7-Val^8-Ile^9-D-Ala^10-Ser^11-Leu^12-Phe^13-Lys^14-NH2] (H-FLK(Levofloxacinoyl)GLMGVI[dA]SLFK-NH2) | >200 µM | 50 µM (≈ 93.3 µg/mL) | >200 µM | >250 µM | 100 µM (≈ 187 µg/mL) | 25.0 µM | > 100 µM | – | 200 µM (≈ 373 µg/mL) | > 100 µM | > 100 µM | – |
| CC[C@H](C)[C@H](NC(=O)[C@@H](NC(=O)CNC(=O)[C@H](CCSC)NC(=O)[C@H](CC(C)C)NC(=O)CNC(=O)[C@H](CCCCN)NC(=O)[C@H](CC(C)C)NC(=O)[C@@H](N)Cc1ccccc1)C(C)C)C(=O)N[C@H](C)C(=O)N[C@@H](CO)C(=O)N[C@@H](CC(C)C)C(=O)N[C@@H](Cc1ccccc1)C(=O)N[C@@H](CCCCNC(=O)c1cn2c3c(c(N4CCN(C)CC4)c(F)cc3c1=O)OC[C@@H]2C)C(N)=O [RLFP-1 (4), H-Phe^1-Leu^2-Lys^3-Gly^4-Leu^5-Met^6-Gly^7-Val^8-Ile^9-D-Ala^10-Ser^11-Leu^12-Phe^13-Lys^14(LF)-NH2] (H-FLKGLMGVI[dA]SLFK(Levofloxacinoyl)-NH2) | >200 µM | 50 µM (≈ 93.3 µg/mL) | >200 µM | >250 µM | 50 µM (≈ 93.3 µg/mL) | 98.9 µM | > 100 µM | – | 25 µM (≈ 46.7 µg/mL) | > 100 µM | > 100 µM | HC50 on Human Red Blood Cells (RBCs) [8]: 98.6 µM |
| CC[C@H](C)[C@H](NC(=O)[C@@H](C)NC(=O)[C@H](CO)NC(=O)[C@H](CC(C)C)NC(=O)[C@@H](N)Cc1ccccc1)C(=O)N[C@H](C(=O)NCC(=O)N[C@@H](CCSC)C(=O)N[C@@H](CC(C)C)C(=O)NCC(=O)N[C@@H](CCCCN)C(=O)N[C@@H](CC(C)C)C(=O)N[C@@H](Cc1ccccc1)C(N)=O)C(C)C [NST-2 (1), H-Phe^1-Leu^2-Ser^3-D-Ala^4-Ile^5-Val^6-Gly^7-Met^8-Leu^9-Gly^10-Lys^11-Leu^12-Phe^13-NH2] (H-FLS[dA]IVGMLGKLF-NH2) | 125 µM (≈ 174 µg/mL) | 6.25 µM (≈ 8.72 µg/mL) | >250 µM | – | 14.34 µM (≈ 20 µg/mL) | – | – | > 100 µM | 250 µM (≈ 349 µg/mL) | – | – | hemolysis HC50 [14]: 90.0 µM; MIC C. albicans (ATCC 36082) ([5]; >99% inhibition of yeast growth, SDB, 24 h, 37 °C): 20 µM (≈ 27.9 µg/mL); HC50 on Human Red Blood Cells (RBCs) ([8]; 1 h, 37 °C, 0.1% triton X-100 = 100% hemolysis): 90.0 µM; IC50 ([11]; lowest IC50 on cancer cells = MCF-7 (peptides 1, 2, 7), from Table 5, read-out: Lower IC50): 17.9 µM |

Source: publication PMC11672801, “Synthesis of Temporin-SHa Retro Analogs with Lysine Addition/Substitution and Antibiotic Conjugation to Enhance Antibacterial, Antifungal, and Anticancer Activities” (Antibiotics, 2024)
